Results on three compounds are retold here after US8986677B2, “Therapeutic compositions and methods” (Pop Test Cortisol LLC, priority 2012, dated 2015).

In data set [1] the test system is organotypic hippocampal slice cultures, CA1 region pyramidal cells. As to the kind of experiment: Ethanol withdrawal toxicity (propidium iodide uptake) in organotypic hippocampal slice cultures. Type of data set: cell-based. The text has this:
(FIG. 2A). […] Co-exposure to the selective glucocorticoid receptor antagonist ORG 34517 with ethanol and corticosterone prevented this withdrawal toxicity. Representative PI images above, (FIG. 2B). Results shown in graph form. *=P<0.05 vs control; **=P<0.05 vs EtOH WD+CORT.
Corticosterone's exacerbation of ethanol withdrawal toxicity is blocked by […] coadministration. […] (FIG. 2). […] Co-exposure to the selective glucocorticoid receptor antagonist ORG 34517 with ethanol and corticosterone prevented this withdrawal toxicity. Representative PI images above, graphed below. *=P<0.05 vs control; **=P<0.05 vs EtOH WD+CORT.

A further data set addresses T1, glucocorticoid receptor (Homo sapiens, UniProt P04150).
T1 sequence (P04150 1-777): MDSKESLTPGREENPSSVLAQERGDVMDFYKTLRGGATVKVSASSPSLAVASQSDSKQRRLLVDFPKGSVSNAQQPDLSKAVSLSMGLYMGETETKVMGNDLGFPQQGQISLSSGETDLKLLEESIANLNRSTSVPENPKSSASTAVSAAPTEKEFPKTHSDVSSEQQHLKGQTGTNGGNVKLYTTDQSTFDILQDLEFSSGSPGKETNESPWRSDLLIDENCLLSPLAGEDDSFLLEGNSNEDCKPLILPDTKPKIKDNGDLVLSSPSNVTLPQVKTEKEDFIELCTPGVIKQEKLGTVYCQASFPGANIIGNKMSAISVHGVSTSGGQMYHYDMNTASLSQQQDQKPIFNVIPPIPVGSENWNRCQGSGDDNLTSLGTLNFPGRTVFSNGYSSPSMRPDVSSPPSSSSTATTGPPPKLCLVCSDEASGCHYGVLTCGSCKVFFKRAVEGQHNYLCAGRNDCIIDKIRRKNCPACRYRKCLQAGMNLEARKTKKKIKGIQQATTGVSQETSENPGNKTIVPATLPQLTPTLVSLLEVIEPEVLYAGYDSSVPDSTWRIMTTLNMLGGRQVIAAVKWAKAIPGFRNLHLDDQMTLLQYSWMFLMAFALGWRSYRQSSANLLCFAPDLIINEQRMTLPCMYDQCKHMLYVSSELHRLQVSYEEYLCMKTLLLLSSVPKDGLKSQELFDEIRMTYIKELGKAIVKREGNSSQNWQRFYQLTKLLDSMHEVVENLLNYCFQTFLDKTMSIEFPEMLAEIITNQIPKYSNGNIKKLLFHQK
The following applies: cited from earlier work.

The target in a further data set is T2, estrogen receptor (Homo sapiens, UniProt P03372).
T2 sequence (P03372 1-595): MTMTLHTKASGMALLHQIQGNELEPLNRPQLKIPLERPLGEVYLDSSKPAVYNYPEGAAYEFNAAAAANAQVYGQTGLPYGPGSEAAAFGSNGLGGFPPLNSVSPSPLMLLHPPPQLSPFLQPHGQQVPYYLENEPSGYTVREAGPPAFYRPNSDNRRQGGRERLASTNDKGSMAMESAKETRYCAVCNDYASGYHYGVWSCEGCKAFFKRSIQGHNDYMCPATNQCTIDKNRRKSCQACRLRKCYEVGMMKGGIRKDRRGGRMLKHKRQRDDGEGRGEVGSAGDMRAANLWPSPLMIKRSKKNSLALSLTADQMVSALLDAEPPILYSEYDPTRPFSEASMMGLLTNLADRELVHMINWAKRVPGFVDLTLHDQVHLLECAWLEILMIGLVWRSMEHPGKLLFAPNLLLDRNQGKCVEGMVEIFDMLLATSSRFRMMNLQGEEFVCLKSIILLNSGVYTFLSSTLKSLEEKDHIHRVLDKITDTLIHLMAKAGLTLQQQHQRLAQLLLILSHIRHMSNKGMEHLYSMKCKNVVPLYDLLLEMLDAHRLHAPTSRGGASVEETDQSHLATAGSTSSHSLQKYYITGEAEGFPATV
The following applies: cited from earlier work.

The target of the next data set is T3, progesterone receptor (Homo sapiens, UniProt P06401).
T3 sequence (P06401 1-933): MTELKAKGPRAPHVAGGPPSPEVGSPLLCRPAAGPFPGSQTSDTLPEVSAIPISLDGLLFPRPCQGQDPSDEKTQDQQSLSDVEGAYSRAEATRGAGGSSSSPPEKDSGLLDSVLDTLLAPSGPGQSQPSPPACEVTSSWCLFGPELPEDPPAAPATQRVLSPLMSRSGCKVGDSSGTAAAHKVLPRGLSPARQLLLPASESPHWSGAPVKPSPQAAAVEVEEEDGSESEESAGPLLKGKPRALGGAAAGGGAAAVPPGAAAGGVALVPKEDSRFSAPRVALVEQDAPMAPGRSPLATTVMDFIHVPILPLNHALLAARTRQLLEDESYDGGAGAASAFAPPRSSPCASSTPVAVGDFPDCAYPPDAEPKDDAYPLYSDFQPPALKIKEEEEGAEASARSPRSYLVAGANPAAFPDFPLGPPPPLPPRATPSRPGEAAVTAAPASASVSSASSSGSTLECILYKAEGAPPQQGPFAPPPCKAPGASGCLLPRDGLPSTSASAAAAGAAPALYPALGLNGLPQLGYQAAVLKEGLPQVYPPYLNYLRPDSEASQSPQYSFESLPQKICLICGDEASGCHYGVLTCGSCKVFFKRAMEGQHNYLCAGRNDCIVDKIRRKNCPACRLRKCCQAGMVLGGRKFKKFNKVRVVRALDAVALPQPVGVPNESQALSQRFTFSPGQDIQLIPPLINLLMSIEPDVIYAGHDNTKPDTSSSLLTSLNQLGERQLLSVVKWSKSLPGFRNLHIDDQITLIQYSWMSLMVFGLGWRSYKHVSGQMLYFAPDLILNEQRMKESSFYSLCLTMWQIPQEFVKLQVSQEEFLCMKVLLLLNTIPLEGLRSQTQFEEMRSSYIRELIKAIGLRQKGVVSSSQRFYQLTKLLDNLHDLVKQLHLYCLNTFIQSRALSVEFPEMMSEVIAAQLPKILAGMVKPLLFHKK
The following applies: cited from earlier work.

The conditions of data set [2]: all phase I and phase II clinical trials performed with the compound; cited from earlier work.

`CC#C[C@]1(O)CC[C@H]2[C@@H]3CCC4=CC(=O)CCC4=C3[C@@H](c3ccc4c(c3)OCO4)C[C@@]21C` [ORG 34517, (11β,17β)-11-(1,3-benzodioxol-5-yl)-17-hydroxy-17-(1-propynyl)estra-4,9-dien-3-one]: the “ethanol withdrawal toxicity (propidium iodide uptake, CA1 region)” value in data set [1] (co-exposure with ethanol (50 mM) and corticosterone (1 μM), 1 day of ethanol withdrawal, P<0.05 vs EtOH WD+CORT) is given as “prevented”. The “behavioral symptoms of the ethanol withdrawal syndrome” value with adult male rats (20 mg/kg s.c. once daily immediately prior to binge ethanol (i.g.) at 0800 hrs on 4 consecutive days, adult male rats, P<0.001 vs EtOH WD) is given as “significantly reduced”. For the same compound, the “reductions in whole body tremor and wet shakes” value with adult male rats (20 mg/kg s.c. once daily prior to binge ethanol, 4 days, adult male rats) is recorded as “most evident”. Also, the “behavior of ethanol-naïve rats” value in the data set on adult male rats (rat, in vivo) is on record as “did not alter behavior in any manner”. The “glucocorticoid receptor binding affinity” value at glucocorticoid receptor is listed as “high”. At estrogen receptor, the “cross-binding / affinity for estrogen receptor” value is “without significant cross-binding”. Also, the “cross-binding / affinity for progesterone receptor” value on progesterone receptor is given as “without significant cross-binding”. Besides, in data set [2], the “significant toxicities and side effects” value is reported as “none were identified”.

On to `C[C@]12C[C@H](O)[C@H]3[C@@H](CCC4=CC(=O)CC[C@@]43C)[C@@H]1CC[C@@H]2C(=O)CO` [corticosterone], for which the “toxicity (propidium iodide uptake) in CA1 region pyramidal cells” value in data set [1] (corticosterone 1 μM with ethanol 50 mM, then 1 day of ethanol withdrawal in the presence of corticosterone) was “significant toxicity”. Further, the “propidium iodide uptake, exposure alone” value in data set [1] (corticosterone alone) was “did not alter”.

In the case of `CCO` [ethanol], in the data set on adult male rats (male, rat, in vivo, 4 days), the “peak blood ethanol levels” value was 180.27-103.5.
